Results from PubChem BioAssay (NCI).
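Dose response: 5 concentrations. Exposure: 48 h. Format: 96-well plates. Endpoint: linear interpolation; highest concentration if not reached. Here, GI50 denotes the concentration required for 50% inhibition of growth. TGI is the concentration that stops growth completely.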

Experiments:
Experiment in all cases: inhibition of tumour cell growth, NCI panel, 48 h
SK-MEL-2 melanoma = system: SK-MEL-2 melanoma
MOLT-4 leukemia = system: MOLT-4 leukemia
A498 renal = system: A498 renal
SR leukemia = system: SR leukemia
HL-60(TB) leukemia = system: HL-60(TB) leukemia
MDA-N = system: MDA-N
OVCAR-5 ovarian = system: OVCAR-5 ovarian
OVCAR-3 ovarian = system: OVCAR-3 ovarian
SF-539 CNS = system: SF-539 CNS
EKVX NSCLC = system: EKVX NSCLC
SK-OV-3 ovarian = system: SK-OV-3 ovarian

Nc1ncnc2c1ncn2[C@@H]1C[C@@H]1CO
TGI (SK-MEL-2 melanoma): > 100 µM
TGI (MOLT-4 leukemia): > 100 µM
TGI (A498 renal): > 100 µM
TGI (SR leukemia): > 100 µM
TGI (HL-60(TB) leukemia): > 100 µM
TGI (MDA-N): > 100 µM
TGI (OVCAR-5 ovarian): > 100 µM
TGI (OVCAR-3 ovarian): > 100 µM
TGI (SF-539 CNS): > 100 µM
TGI (EKVX NSCLC): > 100 µM

Cn1c(=O)c(-c2ccccc2)c(N=[N+]=[N-])c2ccccc21
TGI (MOLT-4 leukemia): 85.4 µM
TGI (A498 renal): > 100 µM
TGI (SR leukemia): 75.4 µM
TGI (MDA-N): > 100 µM
TGI (SK-OV-3 ovarian): > 100 µM
TGI (OVCAR-5 ovarian): > 100 µM
TGI (OVCAR-3 ovarian): > 100 µM
TGI (SF-539 CNS): > 100 µM

N#CCCN(C(=O)Nc1ccccc1)[C@H]1CCCC[C@@H]1N(C(=O)Nc1ccccc1)c1ccccc1
TGI (SK-MEL-2 melanoma): > 100 µM
TGI (MOLT-4 leukemia): > 100 µM
TGI (SR leukemia): > 100 µM
TGI (MDA-N): > 100 µM
TGI (SK-OV-3 ovarian): > 100 µM
TGI (OVCAR-5 ovarian): > 100 µM
TGI (OVCAR-3 ovarian): > 100 µM
TGI (SF-539 CNS): > 100 µM
TGI (EKVX NSCLC): > 100 µM

CN=C(N=Nc1c(O)[nH]c2ccccc12)SCC(=O)c1ccc(Br)cc1
TGI (SK-MEL-2 melanoma): > 100 µM
TGI (MOLT-4 leukemia): > 100 µM
TGI (A498 renal): 37.2 µM
TGI (HL-60(TB) leukemia): > 100 µM
TGI (MDA-N): > 100 µM
TGI (SK-OV-3 ovarian): 28.4 µM
TGI (OVCAR-5 ovarian): > 88.8 µM
TGI (OVCAR-3 ovarian): 28.2 µM
TGI (SF-539 CNS): 23.8 µM
TGI (EKVX NSCLC): > 62.8 µM

COc1ccc(-[n+]2nc(S(=O)(=O)O)c(/C=C/c3ccc(N(C)C)cc3)cc2C#N)cc1
TGI (SK-MEL-2 melanoma): > 100 µM
TGI (MOLT-4 leukemia): > 100 µM
TGI (A498 renal): > 100 µM
TGI (SK-OV-3 ovarian): > 100 µM
TGI (OVCAR-5 ovarian): > 100 µM
TGI (OVCAR-3 ovarian): > 100 µM
TGI (SF-539 CNS): > 100 µM
TGI (EKVX NSCLC): > 100 µM

CC1CCC(=O)C(C(=O)CC2CC(=O)N(C)C(=O)C2)C1 (stereo unspecified)
TGI (SK-MEL-2 melanoma): > 100 µM
TGI (MOLT-4 leukemia): > 100 µM
TGI (A498 renal): > 100 µM
TGI (HL-60(TB) leukemia): > 100 µM
TGI (SK-OV-3 ovarian): > 100 µM
TGI (OVCAR-5 ovarian): > 100 µM
TGI (OVCAR-3 ovarian): > 100 µM
TGI (SF-539 CNS): > 100 µM
TGI (EKVX NSCLC): > 100 µM

O=C1C(c2c(O)[nH]c3ccc(F)cc23)=Nc2ccccc21
TGI (SK-MEL-2 melanoma): > 100 µM
TGI (MOLT-4 leukemia): 81.5 µM
TGI (SR leukemia): > 100 µM
TGI (MDA-N): > 100 µM
TGI (SK-OV-3 ovarian): 24.9 µM
TGI (OVCAR-5 ovarian): > 100 µM
TGI (OVCAR-3 ovarian): > 100 µM
TGI (EKVX NSCLC): > 100 µM

COc1ccc2cc(/C=N/NC(=O)Nc3ccccc3)ccc2c1
TGI (SK-MEL-2 melanoma): > 100 µM
TGI (MOLT-4 leukemia): > 100 µM
TGI (A498 renal): > 100 µM
TGI (SR leukemia): > 100 µM
TGI (HL-60(TB) leukemia): > 100 µM
TGI (MDA-N): > 100 µM
TGI (SK-OV-3 ovarian): > 100 µM
TGI (OVCAR-5 ovarian): > 100 µM
TGI (OVCAR-3 ovarian): > 100 µM

NC(=O)C(C(N)=O)=C(O)C(=O)/C=C(\O)c1ccccc1
TGI (SK-MEL-2 melanoma): > 100 µM
TGI (A498 renal): > 100 µM
TGI (SR leukemia): 13.9 µM
TGI (HL-60(TB) leukemia): 58.8 µM
TGI (MDA-N): > 100 µM
TGI (SK-OV-3 ovarian): > 100 µM
TGI (OVCAR-5 ovarian): > 100 µM
TGI (OVCAR-3 ovarian): > 100 µM
TGI (SF-539 CNS): > 100 µM
TGI (EKVX NSCLC): > 100 µM

COc1ccc(P2(=S)OC(C)(C)C(C)(C)O2)cc1
TGI (SK-MEL-2 melanoma): > 100 µM
TGI (MOLT-4 leukemia): > 100 µM
TGI (SR leukemia): > 100 µM
TGI (HL-60(TB) leukemia): > 100 µM
TGI (MDA-N): > 100 µM
TGI (OVCAR-5 ovarian): > 100 µM
TGI (OVCAR-3 ovarian): > 100 µM
TGI (SF-539 CNS): > 100 µM
TGI (EKVX NSCLC): > 100 µM

CC(=O)Oc1ccc2c(C)cc(=O)oc2c1OC(C)=O
TGI (SK-MEL-2 melanoma): > 100 µM
TGI (MOLT-4 leukemia): > 100 µM
TGI (A498 renal): 76.5 µM
TGI (SR leukemia): > 100 µM
TGI (MDA-N): > 100 µM
TGI (SK-OV-3 ovarian): > 100 µM
TGI (OVCAR-5 ovarian): > 100 µM
TGI (OVCAR-3 ovarian): > 100 µM
TGI (SF-539 CNS): > 100 µM
TGI (EKVX NSCLC): > 100 µM

CC(O)C1(CNc2cc(Cl)nc(N)n2)CCC1 (stereo unspecified)
TGI (SK-MEL-2 melanoma): > 100 µM
TGI (MOLT-4 leukemia): > 100 µM
TGI (SR leukemia): > 100 µM
TGI (HL-60(TB) leukemia): > 100 µM
TGI (MDA-N): > 100 µM
TGI (SK-OV-3 ovarian): > 100 µM
TGI (OVCAR-5 ovarian): > 100 µM
TGI (OVCAR-3 ovarian): > 100 µM
TGI (SF-539 CNS): > 100 µM
TGI (EKVX NSCLC): > 100 µM

COC(=O)c1cc2ccc(N)nc2[nH]c1=O
TGI (SK-MEL-2 melanoma): > 100 µM
TGI (A498 renal): > 100 µM
TGI (MDA-N): > 100 µM
TGI (SK-OV-3 ovarian): > 100 µM
TGI (OVCAR-5 ovarian): > 100 µM
TGI (OVCAR-3 ovarian): > 100 µM
TGI (SF-539 CNS): > 100 µM
TGI (EKVX NSCLC): > 100 µM

Cn1ccc(C(=O)NCCN(CCNC(=O)c2ccn(C)c(=O)c2O)CCNC(=O)c2cccc(=O)n2O)c(O)c1=O
TGI (SK-MEL-2 melanoma): > 100 µM
TGI (A498 renal): > 100 µM
TGI (SR leukemia): > 100 µM
TGI (HL-60(TB) leukemia): > 100 µM
TGI (SK-OV-3 ovarian): > 100 µM
TGI (OVCAR-5 ovarian): > 100 µM
TGI (OVCAR-3 ovarian): > 100 µM
TGI (SF-539 CNS): > 100 µM

Cc1ccc(-n2c(N)c(C#N)c3[nH]nc(N)c3c2=O)cc1
TGI (SK-MEL-2 melanoma): > 100 µM
TGI (MOLT-4 leukemia): > 100 µM
TGI (A498 renal): > 100 µM
TGI (HL-60(TB) leukemia): > 100 µM
TGI (SK-OV-3 ovarian): > 100 µM
TGI (SF-539 CNS): > 100 µM
TGI (EKVX NSCLC): > 100 µM

O=C(Nc1nc(C23CC4CC(CC(C4)C2)C3)cs1)c1cc2ccc(O)cc2oc1=O
TGI (MOLT-4 leukemia): 38.1 µM
TGI (A498 renal): 28.6 µM
TGI (HL-60(TB) leukemia): 34.6 µM
TGI (MDA-N): 41.3 µM
TGI (OVCAR-5 ovarian): 48.5 µM
TGI (OVCAR-3 ovarian): 60.5 µM
TGI (SF-539 CNS): 86.6 µM
TGI (EKVX NSCLC): 43.3 µM

Cc1cc2oc(=N)c(C#N)c(C)c2cc1C
TGI (SK-MEL-2 melanoma): > 100 µM
TGI (MOLT-4 leukemia): 33.2 µM
TGI (A498 renal): > 100 µM
TGI (HL-60(TB) leukemia): > 100 µM
TGI (MDA-N): > 100 µM
TGI (SK-OV-3 ovarian): > 100 µM
TGI (OVCAR-5 ovarian): > 100 µM
TGI (OVCAR-3 ovarian): > 100 µM
TGI (SF-539 CNS): > 100 µM
TGI (EKVX NSCLC): > 100 µM

C=C(C)[C@@H]1CC[C@]2(C(=O)NC3CCCCC3)CC[C@]3(C)[C@H](CC[C@@H]4[C@@]5(C)CCCNC(C)(C)[C@@H]5CC[C@]43C)[C@@H]12
GI50 (SK-MEL-2 melanoma): 1.91 µM
TGI (SK-MEL-2 melanoma): 3.72 µM
GI50 (A498 renal): 14.3 µM
TGI (A498 renal): 28.8 µM
GI50 (HL-60(TB) leukemia): 2.12 µM
TGI (HL-60(TB) leukemia): 4.61 µM
GI50 (SK-OV-3 ovarian): 1.77 µM
TGI (SK-OV-3 ovarian): 3.26 µM
GI50 (OVCAR-3 ovarian): 1.87 µM
TGI (OVCAR-3 ovarian): 3.57 µM
GI50 (SF-539 CNS): 1.69 µM
TGI (SF-539 CNS): 3.11 µM

COc1ccc(C(OCC2OC(n3cc(C)c(=O)[nH]c3=O)CC2n2cc(Cn3cc(Cl)c(=O)[nH]c3=O)nn2)(c2ccccc2)c2ccccc2)cc1 (stereo unspecified)
TGI (SK-MEL-2 melanoma): > 100 µM
TGI (MOLT-4 leukemia): > 100 µM
TGI (A498 renal): > 100 µM
TGI (HL-60(TB) leukemia): 6.99 µM
TGI (MDA-N): > 100 µM
TGI (SK-OV-3 ovarian): > 100 µM
TGI (OVCAR-5 ovarian): > 100 µM
TGI (OVCAR-3 ovarian): > 100 µM
TGI (SF-539 CNS): > 100 µM
TGI (EKVX NSCLC): > 100 µM

CN(C)C1(N(C)C)Oc2c(c(=O)n(C)c(=O)n2C)C(c2ccccc2)C1(F)F (stereo unspecified)
TGI (SK-MEL-2 melanoma): > 100 µM
TGI (MOLT-4 leukemia): > 100 µM
TGI (A498 renal): > 100 µM
TGI (SK-OV-3 ovarian): > 100 µM
TGI (OVCAR-5 ovarian): > 100 µM
TGI (OVCAR-3 ovarian): > 100 µM
TGI (EKVX NSCLC): > 100 µM

N#Cc1c(N)n(-c2cccc(C(=O)O)c2)c(=O)c2cc([N+](=O)[O-])ccc12
TGI (SK-MEL-2 melanoma): > 100 µM
TGI (A498 renal): > 100 µM
TGI (HL-60(TB) leukemia): > 100 µM
TGI (MDA-N): > 100 µM

c1ccc(CCNc2ccccn2)nc1
TGI (SK-MEL-2 melanoma): > 100 µM
TGI (A498 renal): > 100 µM
TGI (HL-60(TB) leukemia): > 100 µM
TGI (MDA-N): > 100 µM
TGI (SK-OV-3 ovarian): > 100 µM
TGI (OVCAR-5 ovarian): > 100 µM
TGI (OVCAR-3 ovarian): > 100 µM
TGI (EKVX NSCLC): > 100 µM

O=[N+]([O-])c1ccc2c(c1)C1=C(CO2)Cc2ccccc2O1
TGI (SK-MEL-2 melanoma): > 100 µM
TGI (A498 renal): > 100 µM
TGI (SR leukemia): > 100 µM
TGI (MDA-N): 33.1 µM
TGI (SK-OV-3 ovarian): > 100 µM
TGI (OVCAR-5 ovarian): 54.7 µM
TGI (OVCAR-3 ovarian): 41.6 µM
TGI (SF-539 CNS): 52.2 µM
TGI (EKVX NSCLC): > 100 µM
